Reference: article PMC12860872, “Preclinical evaluation of DOTAGA.Glu.(FAPI)2 and DO3A.Glu.(FAPI)2 as theranostics with human dosimetry extrapolation to lutetium-177 and terbium-161 analogs” (European Journal of Nuclear Medicine and Molecular Imaging, 2025)
Values joined by “and” are separate entries in the source; they are usually repeats but may differ in a detail not shown here. Equal entries are not always repeated.

Tests used:
[1] = Extrapolated human dosimetry (OLINDA/EXM, ICRP-89 phantoms); parameters: TIAC average pancreas: unit not given beside the values; TIAC average stomach / TIAC average Small Intestine / TIAC average Left Column / TIAC average Rectum / TIAC average adrenal / TIAC average bone / TIAC average Red marrow / TIAC average salivary glands / TIAC average ROB / TIAC average Total Frac IA / TIAC average heart content / TIAC average heart wall / TIAC average liver / TIAC average spleen / TIAC average lung / TIAC average kidney: unit not given here
Procedure: To address inter-animal variability, the TIACs for each source organ were calculated from both the mean nTACs and the nTACs obtainend from fitting the mean ± 1 standard deviation (SD) of the normalized time-activity data, providing upper and lower bounds.
The mice-to-human TIAC extrapolation accounted for species-specific differences in relative source organ masses, m(organ), as compared to the total body weight (WB), for the mice (m) and human (h) models respectively.
(§1) The human organ masses, m(organ)h, were obtained from ICRP-89 adult male and female reference phantoms, while the murine organ masses, m(organ)m, were derived from the standard MOBY mouse model. The extrapolated human TIACs, TIACh were entered in the OLINDA/EXM software to compute the absorbed doses to target organs and the effective dose for adult male, female, and gender-averaged human models. […]
The TIACs, for [177Lu]Lu-DOTAGA.Glu.(FAPI)2 and [177Lu]Lu-DO3A.Glu.(FAPI)2, were determined by time integration of the nTACs. To account for the inter-animal variability, the TIACs for each source organ were calculated using both the mean nTACs and the nTACs obtainend from fitting the mean ±1 standard deviation (SD) of the normalized time-activity data. This approach provided the upper and the lower bounds for the estimated TIACs.
The mice-to-human TIAC extrapolation was obtained considering the different (species-specific) relative source organ masses, m(organ), as compared to the total body weight (WB), for the mice (m) and human (h) models respectively.
as §1, with “the” for “ICRP-89”, “models phantoms defined in ICRP-89,” for “phantoms,”, “TIACs values, TIACh, for each source organ” for “TIACs, TIACh”, “input into the kinetic module of” for “entered in”, “software (version 2.1, HERMES Medical Solutions AB, Stockholm, Sweden)” for “software”

[2] = test system: PC3-mice; assay: Organ clearance biological half-lives from biodistribution data; format: in vivo, mouse; conditions: PC3-mice, One-Phase Decay Model
Procedure: Blood samples were collected from the facial vein at 1, 3, 5, 7, 10, 15, 20, 30, 45, 60, 240, and 1440 min p.i., weighed, and measured for radioactivity using a γ-counter. Results were expressed as % I.A./g of blood and plotted over time. The initial and terminal half-lives were determined using Two-Phase Decay Model. The biological half-lives of selected organs were calculated from the biodistribution data using One-Phase Decay Model (GraphPad Prism 8).

[3] = ICRP 89 Adult Female, extrapolated
[4] = ICRP 89 Adult Male, extrapolated
[5] = human extrapolation, male-female range

- Absorbed dose (AD average) Adrenals [1, 3]: 9.96E-03 mGy/Mbq
- Absorbed dose (AD average) Brain [1, 3]: 2.63E-02 mGy/Mbq
- Absorbed dose (AD average) Breasts [1, 3]: 2.57E-02 mGy/Mbq
- Absorbed dose (AD average) Esophagus [1, 3]: 2.66E-02 mGy/Mbq
- Absorbed dose (AD average) Eyes [1, 3]: 2.63E-02 mGy/Mbq
- Absorbed dose (AD average) Gallbladder Wall [1, 3]: 2.80E-02 mGy/Mbq
- Absorbed dose (AD average) Heart Wall [1, 3]: 2.49E-02 mGy/Mbq
- Absorbed dose (AD average) Left colon [1, 3]: 6.93E-02 mGy/Mbq
- Absorbed dose (AD average) Ovaries [1, 3]: 2.76E-02 mGy/Mbq
- Absorbed dose (AD average) Rectum [1, 3]: 7.09E-02 mGy/Mbq
- Absorbed dose (AD average) Right colon [1, 3]: 4.88E-02 mGy/Mbq
- Absorbed dose (AD average) Stomach Wall [1, 3]: 3.65E-02 mGy/Mbq
- Absorbed dose (AD average) Thymus [1, 3]: 2.70E-02 mGy/Mbq
- Absorbed dose (AD average) Thyroid [1, 3]: 2.64E-02 mGy/Mbq
- Absorbed dose (AD average) Urinary Bladder Wall [1, 3]: 2.73E-02 mGy/Mbq
- Absorbed dose (AD average) Uterus [1, 3]: 2.76E-02 mGy/Mbq
- Effective dose (average) [1, 3]: 3.49E-02
- Absorbed dose (AD average) Adrenals [1, 4]: 7.77E-03 mGy/Mbq
- Absorbed dose (AD average) Brain [1, 4]: 2.00E-02 mGy/Mbq
- Absorbed dose (AD average) Esophagus [1, 4]: 2.06E-02 mGy/Mbq
- Absorbed dose (AD average) Eyes [1, 4]: 2.00E-02 mGy/Mbq
- Absorbed dose (AD average) Gallbladder Wall [1, 4]: 2.20E-02 mGy/Mbq
- Absorbed dose (AD average) Heart Wall [1, 4]: 2.04E-02 mGy/Mbq
- Absorbed dose (AD average) Left colon [1, 4]: 5.77E-02 mGy/Mbq
- Absorbed dose (AD average) Prostate [1, 4]: 2.07E-02 mGy/Mbq
- Absorbed dose (AD average) Rectum [1, 4]: 5.76E-02 mGy/Mbq
- Absorbed dose (AD average) Right colon [1, 4]: 3.94E-02 mGy/Mbq
- Absorbed dose (AD average) Stomach Wall [1, 4]: 2.83E-02 mGy/Mbq
- Absorbed dose (AD average) Testes [1, 4]: 2.00E-02 mGy/Mbq
- Absorbed dose (AD average) Thymus [1, 4]: 2.03E-02 mGy/Mbq
- Absorbed dose (AD average) Thyroid [1, 4]: 2.04E-02 mGy/Mbq
- Absorbed dose (AD average) Urinary Bladder Wall [1, 4]: 2.07E-02 mGy/Mbq
- Effective dose (average) ([1]; ICRP 89 Adult Male, extrapolated, in mSv/MBq (unit assumed)): 2.56E-02
- absorbed dose kidneys [1, 5]: 0.02–0.03 Gy/GBq
- absorbed dose liver [1, 5]: 0.06–0.07 Gy/GBq
- absorbed dose salivary glands [1, 5]: 0.07–0.09 Gy/GBq
- total body and effective doses [1, 5]: 0.027–0.034 Gy/GBq
- TIAC average Left Column ([1]; human female, extrapolated): 0.0781
- TIAC average ROB ([1]; human female, extrapolated): 16.8035
- TIAC average Rectum ([1]; human female, extrapolated): 0.0808
- TIAC average Red marrow ([1]; human female, extrapolated): 0.2208
- TIAC average Small Intestine ([1]; human female, extrapolated): 0.1025
- TIAC average Total Frac IA ([1]; human female, extrapolated): 21.2881
- TIAC average adrenal ([1]; human female, extrapolated): 0.0008
- TIAC average bone ([1]; human female, extrapolated): 2.8185
- TIAC average heart content ([1]; human female, extrapolated): 0.0908
- TIAC average heart wall ([1]; human female, extrapolated): 0.0329
- TIAC average kidney ([1]; human female, extrapolated): 0.0717
- TIAC average liver ([1]; human female, extrapolated): 1.1228
- TIAC average lung ([1]; human female, extrapolated): 0.4313
- TIAC average pancreas ([1]; human female, extrapolated): 0.0313
- TIAC average salivary glands ([1]; human female, extrapolated): 0.0707
- TIAC average spleen ([1]; human female, extrapolated): 0.0929
- TIAC average stomach ([1]; human female, extrapolated): 0.0501
- TIAC average Left Column ([1]; human male, extrapolated): 0.0642
- TIAC average ROB ([1]; human male, extrapolated): 15.5056
- TIAC average Rectum ([1]; human male, extrapolated): 0.0642
- TIAC average Red marrow ([1]; human male, extrapolated): 0.2359
- TIAC average Small Intestine ([1]; human male, extrapolated): 0.0958
- TIAC average Total Frac IA ([1]; human male, extrapolated): 21.2881
- TIAC average adrenal ([1]; human male, extrapolated): 0.0007
- TIAC average bone ([1]; human male, extrapolated): 3.1852
- TIAC average heart content ([1]; human male, extrapolated): 0.1028
- TIAC average heart wall ([1]; human male, extrapolated): 0.0357
- TIAC average kidney ([1]; human male, extrapolated): 0.0664
- TIAC average liver ([1]; human male, extrapolated): 1.1865
- TIAC average lung ([1]; human male, extrapolated): 0.4477
- TIAC average pancreas ([1]; human male, extrapolated): 0.0300
- TIAC average salivary glands ([1]; human male, extrapolated): 0.0706
- TIAC average spleen ([1]; human male, extrapolated): 0.0881
- TIAC average stomach ([1]; human male, extrapolated): 0.0446
- Bone clearance half-life, 95% confidence interval [2]: 14.85 to 18.53 h
- Kidney clearance half-life, 95% confidence interval [2]: 18.73 to 31.89 h
- Liver clearance half-life, 95% confidence interval [2]: 51.46 to 92.13 h
- Pancreas clearance half-life, 95% confidence interval [2]: 12.66 to 19.50 h
- Salivary glands clearance half-life, 95% confidence interval [2]: 13.95 to 20.7 h
- Tumor clearance half-life, 95% confidence interval [2]: 17.58 to 22.85 h
SMILES: N#C[C@@H]1CC(F)(F)CN1C(=O)CNC(=O)c1ccnc2ccc(OCCCCNC(=O)CC[C@H](NC(=O)CN3CCN(CC(=O)[O-])CCN(CC(=O)[O-])CCN(CC(=O)[O-])CC3)C(=O)NCCCCOc3ccc4nccc(C(=O)NCC(=O)N5CC(F)(F)C[C@H]5C#N)c4c3)cc12.[177Lu+3] [[^177Lu]Lu-DO3A.Glu.(FAPI)2]
- Absorbed dose (AD average) Kidneys [1, 3]: 2.54E-02 ± 0.001 mGy/Mbq and 2.54E-02 mGy/Mbq
- Absorbed dose (AD average) Liver [1, 3]: 7.30E-02 ± 0.003 mGy/Mbq and 7.30E-02 mGy/Mbq
- Absorbed dose (AD average) Lungs [1, 3]: 4.16E-02 ± 0.01 mGy/Mbq and 4.16E-02 mGy/Mbq
- Absorbed dose (AD average) Osteogenic Cells [1, 3]: 6.24E-02 ± 0.002 mGy/Mbq and 6.24E-02 mGy/Mbq
- Absorbed dose (AD average) Pancreas [1, 3]: 2.62E-02 ± 0.001 mGy/Mbq and 2.62E-02 mGy/Mbq
- Absorbed dose (AD average) Red Marrow [1, 3]: 3.06E-02 ± 0.001 mGy/Mbq and 3.06E-02 mGy/Mbq
- Absorbed dose (AD average) Salivary Glands [1, 3]: 8.81E-02 ± 0.01 mGy/Mbq and 8.81E-02 mGy/Mbq
- Absorbed dose (AD average) Small Intestine [1, 3]: 4.29E-02 ± 0.003 mGy/Mbq and 4.29E-02 mGy/Mbq
- Absorbed dose (AD average) Spleen [1, 3]: 6.42E-02 ± 0.003 mGy/Mbq and 6.42E-02 mGy/Mbq
- Absorbed dose (AD average) Total Body [1, 3]: 3.44E-02 ± 0.002 mGy/Mbq and 3.44E-02 mGy/Mbq
- Absorbed dose (AD average) Kidneys [1, 4]: 2.09E-02 ± 0.001 mGy/Mbq and 2.09E-02 mGy/Mbq
- Absorbed dose (AD average) Liver [1, 4]: 6.00E-02 ± 0.002 mGy/Mbq and 6.00E-02 mGy/Mbq
- Absorbed dose (AD average) Lungs [1, 4]: 3.40E-02 ± 0.01 mGy/Mbq and 3.40E-02 mGy/Mbq
- Absorbed dose (AD average) Osteogenic Cells [1, 4]: 6.64E-02 ± 0.002 mGy/Mbq and 6.64E-02 mGy/Mbq
- Absorbed dose (AD average) Pancreas [1, 4]: 2.12E-02 ± 0.001 mGy/Mbq and 2.12E-02 mGy/Mbq
- Absorbed dose (AD average) Red Marrow [1, 4]: 2.43E-02 ± 0.001 mGy/Mbq and 2.43E-02 mGy/Mbq
- Absorbed dose (AD average) Salivary Glands [1, 4]: 7.27E-02 ± 0.01 mGy/Mbq and 7.27E-02 mGy/Mbq
- Absorbed dose (AD average) Small Intestine [1, 4]: 3.27E-02 ± 0.002 mGy/Mbq and 3.27E-02 mGy/Mbq
- Absorbed dose (AD average) Spleen [1, 4]: 5.27E-02 ± 0.002 mGy/Mbq and 5.27E-02 mGy/Mbq
- Absorbed dose (AD average) Total Body [1, 4]: 2.71E-02 ± 0.001 mGy/Mbq and 2.71E-02 mGy/Mbq
